Source: US10228380B2, “Methods for targeting membrane steroid transporters” (priority 2018, dated 2019)

Columns and labels:
EcR = target: T1, EcR (Drosophila melanogaster, UniProt P34021); test: luciferase reporter assay in S2 culture cells with or without EcI RNAi; assay type: cell-based, D. melanogaster; conditions: for effect of EcI RNAi treatment on the cells' response as measured by the luciferase assay: S2 culture cells, varying concentrations, 24 hours, EcI RNAi vs control cells without RNAi
T1 construct: endogenous in cells; host or cells: Drosophila S2 culture cells
T1 sequence (P34021 1-878): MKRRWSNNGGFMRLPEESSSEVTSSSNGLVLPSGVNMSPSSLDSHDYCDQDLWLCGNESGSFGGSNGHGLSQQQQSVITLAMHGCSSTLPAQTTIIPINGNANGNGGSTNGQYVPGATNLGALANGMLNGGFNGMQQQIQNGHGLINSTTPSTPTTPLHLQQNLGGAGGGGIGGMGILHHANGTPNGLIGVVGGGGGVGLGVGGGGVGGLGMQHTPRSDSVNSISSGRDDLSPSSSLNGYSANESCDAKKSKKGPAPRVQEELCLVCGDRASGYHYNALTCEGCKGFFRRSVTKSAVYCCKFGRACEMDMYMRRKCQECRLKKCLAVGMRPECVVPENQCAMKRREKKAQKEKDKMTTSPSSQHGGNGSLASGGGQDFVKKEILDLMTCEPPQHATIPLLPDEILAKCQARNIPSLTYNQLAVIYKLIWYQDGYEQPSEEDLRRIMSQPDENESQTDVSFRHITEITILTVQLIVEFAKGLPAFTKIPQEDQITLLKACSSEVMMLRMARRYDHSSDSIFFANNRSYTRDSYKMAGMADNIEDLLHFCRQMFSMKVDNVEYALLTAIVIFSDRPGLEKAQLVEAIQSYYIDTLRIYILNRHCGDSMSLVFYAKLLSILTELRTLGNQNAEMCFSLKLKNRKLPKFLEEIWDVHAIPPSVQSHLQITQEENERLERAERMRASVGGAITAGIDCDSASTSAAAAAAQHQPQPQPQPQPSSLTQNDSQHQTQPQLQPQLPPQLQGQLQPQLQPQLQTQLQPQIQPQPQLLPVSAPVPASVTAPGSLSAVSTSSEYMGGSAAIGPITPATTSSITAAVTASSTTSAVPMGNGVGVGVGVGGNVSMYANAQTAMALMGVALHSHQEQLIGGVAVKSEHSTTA
T1 sequence (P20153 1-508 partner): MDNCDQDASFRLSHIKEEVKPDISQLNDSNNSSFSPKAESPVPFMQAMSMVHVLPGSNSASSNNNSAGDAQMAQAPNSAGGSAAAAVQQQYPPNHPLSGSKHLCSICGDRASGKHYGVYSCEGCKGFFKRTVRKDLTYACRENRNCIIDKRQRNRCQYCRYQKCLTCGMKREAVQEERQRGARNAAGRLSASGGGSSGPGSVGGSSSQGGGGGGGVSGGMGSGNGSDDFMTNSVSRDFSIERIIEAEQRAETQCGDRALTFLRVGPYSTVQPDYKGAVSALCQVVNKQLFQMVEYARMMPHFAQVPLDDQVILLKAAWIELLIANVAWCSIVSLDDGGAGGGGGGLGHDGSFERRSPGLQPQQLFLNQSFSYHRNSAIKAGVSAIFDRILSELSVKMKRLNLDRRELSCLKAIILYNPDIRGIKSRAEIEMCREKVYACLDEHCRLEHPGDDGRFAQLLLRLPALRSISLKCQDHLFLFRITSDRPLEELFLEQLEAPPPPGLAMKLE
Method: FIG. 3 is a graph of the fold change of D. melanogaster EcR response after incubation of S2 culture cells for 24 hours in varying concentrations of 20E (left graph) or chromafenozide (CF; middle graph), as measured by luciferase reporter assay. The right graph is a time-course analysis of EcR-mediated luciferase activity in S2 culture cells treated with 10^−7M of 20E. In each graph, the control data is the solid top line, and the dashed bottom line is data of cells treated with EcI RNAi. Each point represents mean±SD; * indicates p<0.05 from Student's t-test compared to control; ** indicates p<0.01 from Student's t-test compared to control.
FIG. 5A depicts a schematic of a luciferase reporter assay in a cell derived from an arthropod cell line, for determining transport of 20E by the membrane steroid hormone transporter encoded by ecdysone importer (EcI).
As described above, in some embodiments, the transcriptional activity of a steroid hormone nuclear receptor is used to evaluate the transport of a steroid hormone across the cell membrane of an initial cell, or a comparative cell. In some variations, the luciferase reporter assay is used to measure the transcriptional activity of the steroid hormone nuclear receptor. For example, with reference to FIG. 5A and FIG. 5B, depicted are schemes showing the use of a luciferase reporter assay in an S2 cell (FIG. 5A) or in a HEK cell (FIG. 5B) to evaluate the transcriptional activity of the nuclear receptor encoded by the gene ecdysone receptor (EcR).
S2 culture cells treated with EcI RNAi were incubated with varying concentrations of 20E or with chromafenozide (CF) for 24 hours, and their response was monitored using a luciferase reporter assay. The relative response of the treated cells was compared to control cells, which were incubated with 20E or CF but not treated with RNAi. […] CF is a non-steroidal EcR agonist, and is expected to enter the cells through an unknown transporter distinct from EcI.

EcI and EcR = target: T2, EcI and EcR (Drosophila melanogaster, UniProt P34021); test: luciferase reporter assay in HEK culture cells transfected with EcR or with EcI and EcR; assay type: cell-based, D. melanogaster; conditions: varying concentrations, 24 hours
T2 construct: expressed in transfected cells; host or cells: human HEK cells
T2 sequence (P34021 1-878): T1 sequence (P34021 1-878)
Method: FIG. 4 is a relative luciferase reporter activity in HEK culture cells treated for 24 h with 20E. Response of the cells transfected with EcR is the solid bottom line; cells transfected with EcR and EcI is the dashed top line. Each point represents mean±SEM; ** indicates p<0.01 from Student's t-test compared to control.
FIG. 5B depicts a schematic of a luciferase reporter assay in a cell derived from a mammalian cell line, for determining transport of 20E by the membrane steroid hormone transporter encoded by ecdysone importer (EcI).
As described above, in some embodiments, the transcriptional activity of a steroid hormone nuclear receptor is used to evaluate the transport of a steroid hormone across the cell membrane of an initial cell, or a comparative cell. In some variations, the luciferase reporter assay is used to measure the transcriptional activity of the steroid hormone nuclear receptor. […]
Human HEK cells were transfected with EcI and EcR, and their response to incubation with varying concentrations of 20E for 24 hours was evaluated using the luciferase reporter assay. Control HEK cells that were transfected only with EcR were also evaluated.

effect of EcI RNAi treatment on the cells' response over time (time-course of luciferase activity) (EcR; S2 cells treated with 10^−7 M, with or without RNAi) | response as measured by luciferase assay (EcI and EcR; control human HEK cells transfected only with EcR) | response as measured by luciferase assay (EcI and EcR; human HEK cells transfected with both EcI and EcR) | SMILES | effect of EcI RNAi treatment on the cells' response as measured by the luciferase assay (EcR)
significantly decreased | not responsive | responsive | CC(C)(O)CC[C@@H](O)[C@](C)(O)[C@H]1CC[C@@]2(O)C3=CC(=O)[C@@H]4C[C@@H](O)[C@@H](O)C[C@]4(C)[C@H]3CC[C@]12C [20E, 20-hydroxyecdysone] | significantly decreased
– | – | – | Cc1cc(C)cc(C(=O)N(NC(=O)c2ccc3c(c2C)CCCO3)C(C)(C)C)c1 [CF, chromafenozide] | less effect
